Laboratory results: publication PMC7758046, “Novel piperazine–chalcone hybrids and related pyrazoline analogues targeting VEGFR-2 kinase; design, synthesis, molecular docking studies, and anticancer evaluation” (Journal of Enzyme Inhibition and Medicinal Chemistry, 2020)

What was measured:
Test in all cases: NCI-60 single-dose anticancer screen
Format in all cases: cell-based, human
HL-60(TB) (Leukaemia) = details: 10 µM single dose
Procedure: (§1) Six compounds were selected by the NCI, according to NCI’s DTP selection guidelines, for evaluation of their anticancer activity at a single-dose of 10 µM against 60 human tumours cell lines.
(§2) In vitro cytotoxicity was performed in NCI according to reported method.

SF-295 (CNS cancer) = details: 10 µM single dose
Procedure: as §1, §2

MALME-3M (Melanoma) = details: 10 µM single dose
Procedure: as §1, §2

[1] = test system: HOP-92 (Non-small cell lung cancer); details: 10 µM single dose; for inhibition at 10 µM: Homo sapiens, read-out: cell growth inhibition
Procedure: as §1, §2

SK-OV-3 (Ovarian cancer) = details: 10 µM single dose
Procedure: as §1, §2

OVCAR-4 (Ovarian cancer) = details: 10 µM single dose
Procedure: as §1, §2

BT-549 (Breast cancer) = details: 10 µM single dose
Procedure: as §1, §2

SNB-75 (CNS cancer) = details: 10 µM single dose
Procedure: as §1, §2

[2] = test system: NCI/ADR-RES (Ovarian cancer); details: 10 µM single dose
Procedure: as §1, §2

[3] = test system: NCI-H460 (Non-small cell lung cancer); details: 10 µM single dose
Procedure: as §1, §2

SR (Leukaemia) = details: 10 µM single dose
Procedure: as §1, §2

SF-268 (CNS cancer) = details: 10 µM single dose
Procedure: as §1, §2

[4] = test system: NCI-H23 (Non-small cell lung cancer); details: 10 µM single dose
Procedure: as §1, §2

[5] = test system: MDA-MB-231/ATCC (Breast cancer); details: 10 µM single dose
Procedure: as §1, §2

CCRF-CEM (Leukaemia) = details: 10 µM single dose
Procedure: as §1, §2

[6] = test system: MDA-MB-468 (Breast cancer); details: 10 µM single dose
Procedure: as §1, §2

[7] = test system: NCI-H322M (Non-small cell lung cancer); details: 10 µM single dose
Procedure: as §1, §2

MCF7 (Breast cancer) = details: 10 µM single dose
Procedure: as §1, §2

CAKI-1 (Renal cancer) = details: 10 µM single dose
Procedure: as §1, §2

OVCAR-3 (Ovarian cancer) = details: 10 µM single dose
Procedure: as §1, §2

KM12 (Colon cancer) = details: 10 µM single dose
Procedure: as §1, §2

U251 (CNS cancer) = details: 10 µM single dose
Procedure: as §1, §2

SK-MEL-5 (Melanoma) = details: 10 µM single dose
Procedure: as §1, §2

OVCAR-5 (Ovarian cancer) = details: 10 µM single dose
Procedure: as §1, §2

SW-620 (Colon cancer) = details: 10 µM single dose
Procedure: as §1, §2

SK-MEL-2 (Melanoma) = details: 10 µM single dose
Procedure: as §1, §2

HT29 (Colon cancer) = details: for cell growth promotion: 10 µM single dose; for inhibition at 10 µM: Homo sapiens, HT-29, 10 µM single dose, read-out: cell growth inhibition
Procedure: as §1, §2

OVCAR-8 (Ovarian cancer) = details: 10 µM single dose
Procedure: as §1, §2

[8] = test system: NCI-H522 (Non-small cell lung cancer); details: 10 µM single dose
Procedure: as §1, §2

M14 (Melanoma) = details: 10 µM single dose
Procedure: as §1, §2

RXF 393 (Renal cancer) = details: 10 µM single dose
Procedure: as §1, §2

T-47D (Breast cancer) = details: 10 µM single dose
Procedure: as §1, §2

[9] = test system: A549/ATCC (Non-small cell lung cancer); details: 10 µM single dose
Procedure: as §1, §2

TK-10 (Renal cancer) = details: 10 µM single dose
Procedure: as §1, §2

PC-3 (Prostate cancer) = details: 10 µM single dose
Procedure: as §1, §2

[10] = test system: EKVX (Non-small cell lung cancer); details: 10 µM single dose
Procedure: as §1, §2

RPMI-8226 (Leukaemia) = details: 10 µM single dose
Procedure: as §1, §2

COLO 205 (Colon cancer) = details: 10 µM single dose
Procedure: as §1, §2

A498 (Renal cancer) = details: 10 µM single dose
Procedure: as §1, §2

IGROV1 (Ovarian cancer) = details: 10 µM single dose
Procedure: as §1, §2

[11] = test system: NCI-H226 (Non-small cell lung cancer); details: 10 µM single dose
Procedure: as §1, §2

SF-539 (CNS cancer) = details: 10 µM single dose
Procedure: as §1, §2

786-0 (Renal cancer) = details: 10 µM single dose
Procedure: as §1, §2

UO-31 (Renal cancer) = details: 10 µM single dose
Procedure: as §1, §2

DU-145 (Prostate cancer) = details: 10 µM single dose
Procedure: as §1, §2

UACC-62 (Melanoma) = details: 10 µM single dose
Procedure: as §1, §2

HS 578T (Breast cancer) = details: 10 µM single dose
Procedure: as §1, §2

[12] = Homo sapiens, read-out: cell growth inhibition

Question: With N#Cc1ccccc1C1CC(c2ccc(N3CCNCC3)cc2)=NN1 (stereo not drawn) [VIa, 2-(3-(4-(Piperazin-1-yl)phenyl)-4,5-dihydro-1H-pyrazol-5-yl)benzonitrile] as the molecule, how does the cell growth promotion (HL-60(TB) (Leukaemia)) read?
Answer: Its cell growth promotion is 81.63%.

Question: And the cell growth promotion (SF-295 (CNS cancer))?
Answer: The cell growth promotion was 103.66%.

Question: And the cell growth promotion (MALME-3M (Melanoma))?
Answer: Its cell growth promotion is 106.87%.

Question: And the cell growth promotion [1]?
Answer: Its cell growth promotion is 83.18%.

Question: And the inhibition at 10 µM [1]?
Answer: Its inhibition at 10 µM is 16.8%.

Question: And the cell growth promotion (SK-OV-3 (Ovarian cancer))?
Answer: Its cell growth promotion is 96.47%.

Question: What about the cell growth promotion (OVCAR-4 (Ovarian cancer)) of the same molecule?
Answer: Its cell growth promotion is 101.39%.

Question: And the cell growth promotion (BT-549 (Breast cancer))?
Answer: The cell growth promotion was 96.87%.

Question: And the cell growth promotion (SNB-75 (CNS cancer))?
Answer: Its cell growth promotion is 90.58%.

Question: And the cell growth promotion [2]?
Answer: Its cell growth promotion is 102.72%.

Question: And the cell growth promotion [3]?
Answer: The cell growth promotion was 101.50%.

Question: And the cell growth promotion (SR (Leukaemia))?
Answer: Its cell growth promotion is 94.43%.

Question: And the inhibition at 10 µM (SR (Leukaemia); [12])?
Answer: Its inhibition at 10 µM is 5.57%.

Question: And the cell growth promotion (SF-268 (CNS cancer))?
Answer: The cell growth promotion was 100.24%.

Question: What about the cell growth promotion [4] of the same molecule?
Answer: Its cell growth promotion is 91.73%.

Question: And the cell growth promotion [5]?
Answer: Its cell growth promotion is 95.96%.

Question: And the cell growth promotion (CCRF-CEM (Leukaemia))?
Answer: Its cell growth promotion is 71.21%.

Question: And the inhibition at 10 µM (CCRF-CEM (Leukaemia); [12])?
Answer: The inhibition at 10 µM was 28.8%.

Question: What about the cell growth promotion [6] of the same molecule?
Answer: The cell growth promotion was 101.01%.

Question: And the cell growth promotion [7]?
Answer: The cell growth promotion was 98.35%.

Question: What about the cell growth promotion (MCF7 (Breast cancer)) of the same molecule?
Answer: The cell growth promotion was 93.05%.

Question: What about the cell growth promotion (CAKI-1 (Renal cancer)) of the same molecule?
Answer: The cell growth promotion was 83.12%.

Question: What about the cell growth promotion (OVCAR-3 (Ovarian cancer)) of the same molecule?
Answer: The cell growth promotion was 101.64%.

Question: What about the cell growth promotion (KM12 (Colon cancer)) of the same molecule?
Answer: The cell growth promotion was 97.48%.

Question: What about the cell growth promotion (U251 (CNS cancer)) of the same molecule?
Answer: The cell growth promotion was 94.54%.

Question: What about the cell growth promotion (SK-MEL-5 (Melanoma)) of the same molecule?
Answer: The cell growth promotion was 93.27%.

Question: What about the cell growth promotion (OVCAR-5 (Ovarian cancer)) of the same molecule?
Answer: Its cell growth promotion is 113.63%.

Question: And the cell growth promotion (SW-620 (Colon cancer))?
Answer: The cell growth promotion was 94.11%.

Question: What about the cell growth promotion (SK-MEL-2 (Melanoma)) of the same molecule?
Answer: The cell growth promotion was 94.51%.

Question: What about the cell growth promotion (HT29 (Colon cancer)) of the same molecule?
Answer: Its cell growth promotion is 87.83%.

Question: What about the inhibition at 10 µM (HT29 (Colon cancer)) of the same molecule?
Answer: The inhibition at 10 µM was 12.2%.

Question: What about the cell growth promotion (OVCAR-8 (Ovarian cancer)) of the same molecule?
Answer: The cell growth promotion was 90.36%.

Question: And the cell growth promotion [8]?
Answer: The cell growth promotion was 69.51%.

Question: What about the inhibition at 10 µM [8, 12] of the same molecule?
Answer: Its inhibition at 10 µM is 30.5%.

Question: And the cell growth promotion (M14 (Melanoma))?
Answer: Its cell growth promotion is 104.47%.

Question: And the cell growth promotion (RXF 393 (Renal cancer))?
Answer: Its cell growth promotion is 108.30%.

Question: What about the cell growth promotion (T-47D (Breast cancer)) of the same molecule?
Answer: Its cell growth promotion is 89.99%.

Question: And the cell growth promotion [9]?
Answer: Its cell growth promotion is 78.06%.

Question: What about the inhibition at 10 µM [9, 12] of the same molecule?
Answer: Its inhibition at 10 µM is 21.9%.

Question: And the cell growth promotion (TK-10 (Renal cancer))?
Answer: The cell growth promotion was 130.17%.

Question: What about the cell growth promotion (PC-3 (Prostate cancer)) of the same molecule?
Answer: Its cell growth promotion is 83.35%.

Question: What about the cell growth promotion [10] of the same molecule?
Answer: The cell growth promotion was 101.50%.

Question: What about the cell growth promotion (RPMI-8226 (Leukaemia)) of the same molecule?
Answer: Its cell growth promotion is 88.98%.

Question: And the cell growth promotion (COLO 205 (Colon cancer))?
Answer: The cell growth promotion was 113.04%.

Question: What about the cell growth promotion (A498 (Renal cancer)) of the same molecule?
Answer: The cell growth promotion was 93.08%.

Question: And the cell growth promotion (IGROV1 (Ovarian cancer))?
Answer: Its cell growth promotion is 93.22%.

Question: And the cell growth promotion [11]?
Answer: Its cell growth promotion is 93.10%.

Question: What about the cell growth promotion (SF-539 (CNS cancer)) of the same molecule?
Answer: The cell growth promotion was 105.04%.

Question: What about the cell growth promotion (786-0 (Renal cancer)) of the same molecule?
Answer: The cell growth promotion was 106.73%.

Question: What about the cell growth promotion (UO-31 (Renal cancer)) of the same molecule?
Answer: Its cell growth promotion is 86.28%.

Question: And the cell growth promotion (DU-145 (Prostate cancer))?
Answer: Its cell growth promotion is 104.00%.

Question: And the cell growth promotion (UACC-62 (Melanoma))?
Answer: Its cell growth promotion is 88.47%.

Question: What about the cell growth promotion (HS 578T (Breast cancer)) of the same molecule?
Answer: Its cell growth promotion is 91.67%.

Question: Which results are given for Fc1cnccc1C1CC(c2ccc(N3CCNCC3)cc2)=NN1 (stereo not drawn) [VIc, 1-(4-(5-(3-Fluoropyridin-4-yl)-4,5-dihydro-1H-pyrazol-3-yl)phenyl) piperazine]?
Answer: cell growth promotion (HL-60(TB) (Leukaemia)): 77.32%; cell growth promotion (SF-295 (CNS cancer)): 98.00%; cell growth promotion (MALME-3M (Melanoma)): 93.43%; cell growth promotion [1]: 72.42%; inhibition at 10 µM [1]: 27.6%; cell growth promotion (SK-OV-3 (Ovarian cancer)): 85.00%; cell growth promotion (OVCAR-4 (Ovarian cancer)): 108.25%; cell growth promotion (BT-549 (Breast cancer)): 85.33%; cell growth promotion (SNB-75 (CNS cancer)): 101.50%; cell growth promotion [2]: 106.03%; cell growth promotion [3]: 94.92%; cell growth promotion (SR (Leukaemia)): 90.38%; cell growth promotion (SF-268 (CNS cancer)): 107.32%; cell growth promotion [4]: 83.85%; cell growth promotion [5]: 84.58%; cell growth promotion (CCRF-CEM (Leukaemia)): 80.81%; cell growth promotion [6]: 114.26%; cell growth promotion [7]: 89.29%; cell growth promotion (MCF7 (Breast cancer)): 73.03%; cell growth promotion (CAKI-1 (Renal cancer)): 80.62%; cell growth promotion (OVCAR-3 (Ovarian cancer)): 98.79%; cell growth promotion (KM12 (Colon cancer)): 96.23%; cell growth promotion (U251 (CNS cancer)): 95.06%; cell growth promotion (SK-MEL-5 (Melanoma)): 85.78%; cell growth promotion (OVCAR-5 (Ovarian cancer)): 111.45%; cell growth promotion (SW-620 (Colon cancer)): 93.46%; cell growth promotion (SK-MEL-2 (Melanoma)): 92.72%; cell growth promotion (HT29 (Colon cancer)): 60.16%; inhibition at 10 µM (HT29 (Colon cancer)): 39.8%; cell growth promotion (OVCAR-8 (Ovarian cancer)): 95.06%; cell growth promotion [8]: 81.93%; cell growth promotion (M14 (Melanoma)): 95.86%; cell growth promotion (RXF 393 (Renal cancer)): 104.89%; cell growth promotion (T-47D (Breast cancer)): 82.20%; cell growth promotion [9]: 76.20%; cell growth promotion (TK-10 (Renal cancer)): 122.80%; cell growth promotion (PC-3 (Prostate cancer)): 70.34%; cell growth promotion [10]: 91.04%; cell growth promotion (RPMI-8226 (Leukaemia)): 92.51%; cell growth promotion (COLO 205 (Colon cancer)): 95.69%; cell growth promotion (A498 (Renal cancer)): 97.17%; cell growth promotion (IGROV1 (Ovarian cancer)): 67.96%; cell growth promotion [11]: 82.88%; cell growth promotion (SF-539 (CNS cancer)): 104.39%; cell growth promotion (786-0 (Renal cancer)): 111.09%; cell growth promotion (UO-31 (Renal cancer)): 77.18%; cell growth promotion (DU-145 (Prostate cancer)): 107.16%; cell growth promotion (UACC-62 (Melanoma)): 81.93%; cell growth promotion (HS 578T (Breast cancer)): 89.15%
